What was measured:
[1] = test system: Raf-1; experiment: Raf-1 immunoprecipitation and immunoblotting in SQ-20B cells (5132, LE-5132, LE-10353); assay type: cell-based, human
Procedure: FIG. 9: Antisense sequence-specific inhibition of Raf-1 expression in SQ-20B cells. (A) Logarithmically growing SQ-20B cells were treated with indicated ODN concentrations of LE-5132 (SEQ ID NO:4) (lanes 3, 5 and 10), 5132 (SEQ ID NO:4) (lanes 4 and 6), or LE-10353 (SEQ ID NO:5) (lane 9) as described in Materials and Methods. Control cells were either left untreated (lanes 1 and 7) or treated with 1 uM blank liposomes (BL) (lanes 2 and 8). Whole cell lysates were normalized for total protein content and immunoprecipitated with agarose-conjugated polyclonal anti-Raf-1 antibody. Immune complexes were resolved by 7.5% SDS-PAGE and immunoblotted with polyclonal anti-Raf-1 antibody. (B) Data from three independent experiments were quantified and expressed relative to the level of Raf-1 in untreated cells.
On day two, cells were rinsed with fresh 30% FBS, followed by a second course of the treatment schedule as on day one for an additional 24 hours. This procedure yielded a minimal exposure of cells of LE-5132 (SEQ ID NO:4) 12 hours). […] The lysates were clarified by centrifugation at 16,000 g for 20 minutes, and the protein concentrations were determined (Pierce, Rockford, Ill.). […] The Raf-1 protein level was quantified using the computer software program Image-Quant (Molecular Dynamics, Sunnyvale, Calif.).

[2] = test system: SQ-20B tumor xenografts; experiment: SQ-20B tumor xenograft growth (LE-5132, 5132, ionizing radiation); assay type: in vivo, Balb/c nu/nu mice; conditions: 10 mg/kg i.v. daily 7 days then three doses on alternate days; day 35
Procedure: FIG. 13: Effect of LE-5132 (SEQ ID NO:4) on […] tumor growth. SQ-20B rumor cells (2×10^6) were injected a.c. into the left flank region of each male Balb/c nu/nu mouse, 10–12 weeks old. Tumor xenografts were grown to a mean tumor volume of 94±6.4 mm^3, and the animals were randomized into two treatment groups. Day 0 represents the first day of treatment. […] The data shown are mean±SE of 5–7 animals per group.
FIG. 15: Effect of LE-5132 (SEQ ID NO:4) and ionizing radiation on SQ-20B rumor growth. (A) SQ-20B tumor xenografts were grown in male Balb/c nu/nu mice as described. Animals bearing a mean tumor volume of 72.0±4.3 mm^3 were randomized into five treatment groups. Day 0 represents the first day of treatment. […]
Logarithmically growing SQ-20B cells were injected s.c. (2×10^o cells) in the left flank region in male Balb/c nu/nu mice under mild anesthesia. […] Volumes for tumors were determined from caliper measurements of the three major axes (a, b, c) and calculated using abc/2, an approximation for the volume of an ellipse (πabc/6).
For each experiment, tumor-bearing mice were randomly divided into different treatment group, with 5–7 animals per group. […] Using TLD dosimetry, the average dose rate to the center of the tumor and to the mouse body were determined beforehand using the experimental irradiation conditions and a custom-made, tissue-equivalent, mouse phantom. […]

[3] = mouse, in vivo, iv, 30 mg/kg
Procedure: FIG. 11: The plasma concentration-time profile of LE-5132 (SEQ ID NO:4) and 5132 (SEQ ID NO:4); 30 mg/kg LE-5132 (SEQ ID NO:4) or 5132 (SEQ ID NO:4) was administered i.v. in Balb/c nu/nu mice. Blood samples were collected from the retroorbital sinus at indicated times after injection, and ODN in plasma samples was extracted and analyzed by denaturing gel electrophoresis as described. […] Quantification data were calculated based on comparison with known concentrations of the standard samples and then normalized against sample dilution factors used for loading.
Male Balb/c nu/nu mice (National Cancer Institute, Frederick, Md.) were maintained in the Division of Comparative Medicine, Georgetown University, according to accredited procedures, and fed purina chow and water ad libitum. Mice were injected i.v. via the tail vein with 30 mg/kg of LE-5132 (SEQ ID NO:4) or 5132 (SEQ ID NO:4) formulated in PBS. At 5, 15, and 30 minutes and 1, 2, 4, 8, 24, and 48 hours after injection, animals were bled, under anesthesia, from the retroorbital sinus into heparinized tubes and killed by cervical dislocation. The blood was centrifuged immediately at 300 g for 10 minutes at 4° C. to separate the plasma. The liver, spleen, kidney, heart, and lungs were rapidly excised and rinsed in ice-cold normal saline. The plasma and organs were stored at −70° C. until further analysis.
Antisense raf ODN concentrations in plasma and tissue samples were detected as we described earlier (Gokhale et al., 1997). Briefly, the ODN was isolated from plasma samples using the phenol-chloroform extraction method and from tissues using a DNA extraction kit (Stratagene, La Jolla, Calif.). The raf ODN concentration standards were prepared by adding known amounts of 5132 (SEQ ID NO:4) in blank plasma or blank tissue samples, followed by extraction as described earlier. The extracts were loaded onto 20% pblyacrylamide/8 M urea gels and electrophoresed in TBE buffer. The gels were electroblotted onto nylon membranes in 0.5×TBE buffer at 20 V for one hour, and the blots were probed with [^32P]-labeled sense raf ODN probe in Quickhyb buffer (Stratagene) at 30° C. overnight. A 10–50-fold excess of the probe was used to ensure saturation of all bands. The autoradiographs were scanned using a computer program (Image-Quant software), and the amounts of antisense raf ODN in the samples were calculated by comparison with standards.

[4] = test system: Raf-1; experiment: Raf-1 expression in SQ-20B tumor xenografts after i.v. or intratumoral ODN; assay type: in vivo, human; conditions: intravenous treatment; compared with untreated controls
Procedure: FIG. 7: Effects of intravenous administration of LE-ATG-AS raf ODN (SEQ ID NO:1) our Raf-1 expression in normal and tumor tissues. Raf-1 expression was examined in liver, kidneys and SQ-20B tumor xenograft of Balb/c nu/nu mice after i.v. injections of 6 mg/kg daily dose of LE-ATG-AS raf ODN (SEQ ID NO:1) (AS) or LE-ATG-S raf ODN (SEQ ID NO:3) (S) for five consecutive days. Control mice (C) received normal saline. Representative data showing Raf-1 expression in lysates normalized for protein content by immunoprecipitation and immunoblotting (top). Quantification data are shown as mean±s.d. from three mice (bottom).
FIG. 8: Inhibition of Raf-1 protein expression in SQ-20B tumor xenografts by intratumoral administration of LE-ATG-AS raf ODN (SEQ ID NO:1): Each animal received intratumoral injections of LE-ATG-AS raf ODN (SEQ ID NO:1) (AS) on the right flank and LE-ATG-S raf ODN (SEQ ID NO:3) (S) on the left flank at a dose of 4 mg/kg daily for seven days as explained in the experimental procedures. […] Quantification data shown are mean±s.d., from three representative mice. […]
For in vivo expression studies, tumor tissue and organs were homogenized in the cell lysis buffer using Polytron homogenizer (Westbury, N.Y., USA). Raf-1 expression was analyzed in tissue homogenates by immunoprecipitation and immunoblotting as described above.

Substance | effect on Raf-1 expression in cell culture [1] | mean tumor volume compared with day 0 (100%) [2] | AUCarea [3] [µg·h/mL] | CL (total body clearance) [3] [L/h/kg] | Cmax (peak plasma concentration) [3] [µg/mL] | Vdarea (volume of distribution) [3] [L/kg] | initial distribution half-life [3] [h] | t1/2β (elimination half-life) [3] [h] | terminal half-life (t1/2β) [3] [h] | effect on Raf-1 expression in tumor tissue [4]
5′-TCC-CGC-CTG-TGA-CAT-GCA-TT-3′ [compound 5132] | ineffective | 159.6%±10.0% | 6.20 | 4.82 | 13.57 | 29.96 | 0.36 | 4.30 | 4.3 | –
5′-GCAT-CAATGGAGCAC-3′ (sense GCATCAATGGAGCAC; listed as DNA, chemistry not fully specified) [ATG-S raf ODN] | – | – | – | – | – | – | – | – | – | no effect
